# Source: PMC3726336, “Product inhibition of cellulases studied with ^14C-labeled cellulose substrates” (Biotechnology for Biofuels, 2013)
# What was measured:
# [1] = biological target: CtCel7A (Chaetomium thermophilum, UniProt A7WNU1); assay: Cellobiose inhibition of MUL hydrolysis by CtCel7A; format: biochemical; settings: MUL substrate (5 μM)
# Source text: The cellobiose inhibition of GH7 CBHs is most often studied on low-Mw model substrates. However, it has been shown that the inhibition of CBHs acting on low-Mw substrates appears to be much stronger than that on cellulose substrates. The Ki values for cellobiose inhibition of GH7 CBHs measured on low-Mw substrates are in the micromolar range [44, 51, 52], whereas those measured on cellulose are in the low- to high-millimolar range [28, 31, 32]. […] Unfortunately, the inhibition of this enzyme on cellulose has not been studied. We also studied the cellobiose inhibition of GH7 CBHs acting on MUL. The initial rates of MUL hydrolysis measured in the presence and absence of added cellobiose were first analyzed according to Equation 1, and the IC50 values were found using Equation 2. […] The inhibition of MUL hydrolysis is attributable to the binding of cellobiose to the product sites (+1/+2) of TrCel7A [52]. […]
# For the inhibition of enzyme acting on the low-Mw substrate, the initial rates of the hydrolysis of MUL in the presence and absence of added cellobiose were followed. […] Reactions were stopped by the addition of NH3 (final concentration 0.1 M), and the released 4-methylumbelliferone was quantified by fluorescence using excitation and emission wavelengths of 360 nm and 450 nm, respectively.
# [2] = biological target: T1, TrCel5A (Trichoderma reesei, UniProt P07982); set-up: method as in doi:10.1016/j.tca.2005.01.025; settings: TrCel5A acting on cellohexaose; read-out: Ki value for cellobiose inhibition; cited from earlier work
# T1 construct: TrCel7B, TrCel5A, and TrCel12A were purified from the culture filtrate of Tr QM 9414; made in house; host or cells: Trichoderma reesei QM 9414 culture filtrate (native producer)
# [3] = biological target: T2, TrCel7A (Trichoderma reesei, UniProt P62694); set-up: method as in PMID 22733813; settings: read-out: IC50 for cellobiose, 14C-BC substrate, 25°C; cited from earlier work
# T2 construct: TrCel7A was purified from the culture filtrate of Tr QM 9414 as described previously; made in house; host or cells: Trichoderma reesei QM 9414 culture filtrate (native producer)
# T2 sequence (P62694 18-513): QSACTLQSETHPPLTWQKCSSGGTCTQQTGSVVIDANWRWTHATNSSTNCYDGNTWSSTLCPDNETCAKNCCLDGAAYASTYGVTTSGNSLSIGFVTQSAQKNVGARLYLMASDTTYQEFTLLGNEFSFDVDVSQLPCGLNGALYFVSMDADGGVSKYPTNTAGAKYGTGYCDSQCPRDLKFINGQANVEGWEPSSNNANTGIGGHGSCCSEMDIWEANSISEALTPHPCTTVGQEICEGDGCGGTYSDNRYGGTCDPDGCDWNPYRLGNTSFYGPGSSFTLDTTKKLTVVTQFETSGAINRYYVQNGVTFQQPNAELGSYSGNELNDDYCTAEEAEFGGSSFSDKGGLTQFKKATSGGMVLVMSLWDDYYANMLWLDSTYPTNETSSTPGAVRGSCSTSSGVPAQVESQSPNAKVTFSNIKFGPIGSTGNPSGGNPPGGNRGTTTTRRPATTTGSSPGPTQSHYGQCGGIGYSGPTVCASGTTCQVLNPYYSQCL
# Chain of CtCel7A (A7WNU1 entry or part of it): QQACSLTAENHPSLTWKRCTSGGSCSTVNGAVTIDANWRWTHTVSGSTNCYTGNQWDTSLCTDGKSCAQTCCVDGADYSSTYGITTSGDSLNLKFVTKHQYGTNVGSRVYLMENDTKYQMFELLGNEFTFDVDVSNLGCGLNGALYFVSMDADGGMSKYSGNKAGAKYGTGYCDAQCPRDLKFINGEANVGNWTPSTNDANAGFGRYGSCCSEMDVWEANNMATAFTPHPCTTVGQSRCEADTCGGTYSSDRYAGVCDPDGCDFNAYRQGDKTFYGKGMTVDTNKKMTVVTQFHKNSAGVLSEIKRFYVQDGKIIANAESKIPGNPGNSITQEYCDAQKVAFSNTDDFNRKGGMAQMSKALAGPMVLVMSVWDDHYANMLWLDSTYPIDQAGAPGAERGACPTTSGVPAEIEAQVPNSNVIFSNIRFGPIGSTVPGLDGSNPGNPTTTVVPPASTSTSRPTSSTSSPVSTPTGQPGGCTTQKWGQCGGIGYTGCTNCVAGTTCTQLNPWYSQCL
# T1 sequence (P07982 22-418): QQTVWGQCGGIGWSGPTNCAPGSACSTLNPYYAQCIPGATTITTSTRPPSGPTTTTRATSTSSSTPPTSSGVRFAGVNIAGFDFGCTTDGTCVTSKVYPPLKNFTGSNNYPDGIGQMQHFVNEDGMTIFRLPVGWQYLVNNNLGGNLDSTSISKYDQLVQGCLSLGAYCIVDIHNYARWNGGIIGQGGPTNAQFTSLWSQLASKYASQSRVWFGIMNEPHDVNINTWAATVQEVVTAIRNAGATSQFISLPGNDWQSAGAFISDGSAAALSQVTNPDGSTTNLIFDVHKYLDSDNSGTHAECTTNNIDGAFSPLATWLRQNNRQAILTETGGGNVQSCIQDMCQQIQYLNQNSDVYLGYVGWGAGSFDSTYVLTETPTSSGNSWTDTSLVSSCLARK
smiles,measurement,setting,value
"O=C[C@H](O)[C@@H](O)[C@H](O[C@@H]1O[C@H](CO)[C@@H](O)[C@H](O)[C@H]1O)[C@H](O)CO [cellobiose, Cellobiose]",Ki,[1]; 35°C,110 µM
same,Ki,[1]; 50°C,346 µM
same,Ki,[2],424 µM
same,IC50,[3],380 ± 30 µM
